Assay results from patent US20220184099A1, “METHODS OF USING OBETICHOLIC ACID” (Intercept Pharmaceuticals, Inc., priority 2018, published 2022).

Experiments:
[1] = Plasma PK of total OCA (AUC0-24 h), serial sampling on Day 1 and Day 28 of dosing; type: in vivo, human
Procedure: (§1) To evaluate safety, the PK and PD of OCA administered at 10 mg/day or 25 mg/day in subjects with compensated cirrhosis due to NASH was compared to healthy controls in a randomized, double blind, single center, Phase 3 study. Sixteen subjects with cirrhosis due to NASH and 8 healthy, age- and weight-matched, subjects were randomized in a 1:1 ratio to QD OCA 10 mg or OCA 25 mg for 28 days, according to FIG. 1 and Table 1. Extensive serial PK sampling over a 24-hour period was performed on Day 1 and Day 28 of dosing.

[2] = Liver biochemistry (ALT, AST, GGT, ALP, bilirubin) during 28 days of QD OCA; type: in vivo, human
Procedure: as §1

FXR = target: T1, FXR (Homo sapiens, UniProt Q96RI1); assay: PD markers of FXR activation (C4, FGF-19) during 28 days of QD OCA; type: in vivo
T1 construct: FGF-19 released from gut enterocytes (in response to FXR agonist) into portal circulation down regulates endogenous bile acid synthesis in the liver; endogenous in cells; host or cells: human study subjects in vivo (gut enterocytes, liver)
T1 sequence (Q96RI1 1-486): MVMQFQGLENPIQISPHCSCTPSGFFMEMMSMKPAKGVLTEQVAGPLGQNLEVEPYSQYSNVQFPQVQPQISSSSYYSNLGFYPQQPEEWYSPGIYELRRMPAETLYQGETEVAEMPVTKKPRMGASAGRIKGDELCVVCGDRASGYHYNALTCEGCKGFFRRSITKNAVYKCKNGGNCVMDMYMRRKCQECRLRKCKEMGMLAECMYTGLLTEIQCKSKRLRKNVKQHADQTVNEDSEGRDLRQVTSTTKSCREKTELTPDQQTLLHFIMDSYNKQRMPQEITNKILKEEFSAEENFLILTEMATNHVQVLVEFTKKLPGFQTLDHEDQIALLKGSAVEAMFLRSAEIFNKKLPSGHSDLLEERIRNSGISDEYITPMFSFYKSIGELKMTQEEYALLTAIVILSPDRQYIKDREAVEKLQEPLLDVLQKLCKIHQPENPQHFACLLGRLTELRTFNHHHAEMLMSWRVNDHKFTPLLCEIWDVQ
Text: In one aspect, obeticholic acid may mediate its action primarily via FXR agonism, wherein FGF-19 released from gut enterocytes (in response to FXR agonist) into portal circulation down regulates endogenous bile acid synthesis in the liver. The present disclosure comprehends a method of measuring FXR agonist activity by, for example, measuring release of FGF-19 into the bloodstream or circulation of a patient administered with OCA. Levels of FGF-19 may be measured by methods known in the art, such as those described herein.
In some embodiments, the plasma levels of FGF-19, a marker of FXR activation, are determined using a qualified method and a validated method using an enzyme-linked immunosorbent assay (ELISA) method. The plasma concentrations of FGF-19 may be quantitated at predose and after administration of dose.
In some examples, a monoclonal antibody specific for FGF-19 is pre-coated onto a microplate. Standards, quality controls and samples are pipetted into the wells and any FGF-19 present is bound by the immobilized antibody. After washing away any unbound substances, an enzyme-linked polyclonal antibody specific for FGF-19 is added to the wells. Following a wash to remove any unbound antibody-enzyme reagent, a substrate solution is added to the wells and color develops in the proportion to the amount of FGF-19 bound in the initial step. The color development is stopped and the intensity of the color is measured. The calibration range of the method is 15.625 pg/ml to 1000 pg/ml for FGF-19 using a 100 μl aliquot of standard curve, quality control and sample. In some embodiments, no minimum required dilution is used. In other embodiments, samples may be subjected to a 3× minimum required dilution.
To evaluate safety, the PK and PD of OCA administered at 10 mg/day or 25 mg/day in subjects with compensated cirrhosis due to NASH was compared to healthy controls in a randomized, double blind, single center, Phase 3 study. […]

[3] = Albumin, creatinine, platelets and INR levels in subjects of the clinical study; type: in vivo, human; conditions: for Albumin, % Change at Day 28 / Albumin, Day 28 / Creatinine, % Change at Day 28 / Creatinine, Day 28 / Platelets, % Change at Day 28 / Platelets, Day 28: median
Procedure: as §1

[4] = Adverse events, safety and tolerability of OCA 10 mg or 25 mg QD for 28 days; type: in vivo, human; conditions: for Total adverse events (AEs): both doses
Procedure: as §1

[5] = both dose groups, throughout the 28-day study

With `CC[C@H]1[C@@H](O)[C@@H]2[C@H](CC[C@]3(C)[C@@H]([C@H](C)CCC(=O)O)CC[C@@H]23)[C@@]2(C)CC[C@@H](O)C[C@@H]12` [OCA, 3α,7α-dihydroxy-6α-ethyl-5β-cholan-24-oic acid] as the molecule, how does the “Plasma exposure of total OCA in subjects with cirrhosis due to NASH relative to healthy subjects” value ([1]; daily OCA 10 mg and 25 mg) read?
The value was “higher”.

What about the “Hepatic exposure of OCA” value ([1]; despite increased systemic exposure, FIGS. 11A and 11B) of the same molecule?
The value was “remain nominal”.

What about the “Bilirubin levels (direct and total)” value ([2]; 10 mg and 25 mg groups, 28 days) of the same molecule?
Its value is “no apparent trend”.

What about the ALP ([2]; OCA 25 mg group, mostly driven by subjects with elevated ALP at Baseline) of the same molecule?
The ALP was “moderate increase”.

And the ALT [2, 5]?
The ALT was “improvements”.

And the AST [2, 5]?
Its AST is “improvements”.

What about the GGT [2, 5] of the same molecule?
Its GGT is “improvements”.

And the PD effects (FXR; both doses of OCA)?
Its PD effects is “favorable PD effects”.

And the C4 (FXR; both dosing groups)?
The C4 was “suppression”.

What about the FGF-19 (FXR; both dosing groups) of the same molecule?
Its FGF-19 is “activation”.

And the Albumin levels ([3]; 28 days)?
The Albumin levels was “No changes”.

And the INR ([3]; 28 days)?
Its INR is “No changes”.

What about the Platelet levels ([3]; 28 days) of the same molecule?
Its Platelet levels is “No changes”.

And the “Albumin, % Change at Day 28” value ([3]; Healthy, 10 mg OCA (n = 4))?
Its value is 2.3%.

And the “Albumin, Day 28” value ([3]; Healthy, 10 mg OCA (n = 4))?
The value was 4.5 g/dL.

What about the “Creatinine, % Change at Day 28” value ([3]; Healthy, 10 mg OCA (n = 4)) of the same molecule?
The value was −1.6%.

What about the “Creatinine, Day 28” value ([3]; Healthy, 10 mg OCA (n = 4)) of the same molecule?
The value was 0.96 mg/dL.

And the “Platelets, % Change at Day 28” value ([3]; Healthy, 10 mg OCA (n = 4))?
The value was 0.4%.

And the “Platelets, Day 28” value ([3]; Healthy, 10 mg OCA (n = 4))?
Its value is 262.0 10^9/L.

And the “Albumin, % Change at Day 28” value ([3]; Healthy, 25 mg OCA (n = 4))?
Its value is −4.0%.

And the “Albumin, Day 28” value ([3]; Healthy, 25 mg OCA (n = 4))?
Its value is 4.0 g/dL.

What about the “Creatinine, % Change at Day 28” value ([3]; Healthy, 25 mg OCA (n = 4)) of the same molecule?
Its value is 8.3%.

What about the “Creatinine, Day 28” value ([3]; Healthy, 25 mg OCA (n = 4)) of the same molecule?
Its value is 0.78 mg/dL.

What about the “Platelets, % Change at Day 28” value ([3]; Healthy, 25 mg OCA (n = 4)) of the same molecule?
Its value is 4.0%.

What about the “Platelets, Day 28” value ([3]; Healthy, 25 mg OCA (n = 4)) of the same molecule?
The value was 261.0 10^9/L.

What about the “Albumin, % Change at Day 28” value ([3]; NASH CP-A, 10 mg OCA (n = 8)) of the same molecule?
The value was −3.9%.

And the “Albumin, Day 28” value ([3]; NASH CP-A, 10 mg OCA (n = 8))?
The value was 4.0 g/dL.

What about the “Creatinine, % Change at Day 28” value ([3]; NASH CP-A, 10 mg OCA (n = 8)) of the same molecule?
The value was 4.3%.

And the “Creatinine, Day 28” value ([3]; NASH CP-A, 10 mg OCA (n = 8))?
Its value is 0.88 mg/dL.

What about the “Platelets, % Change at Day 28” value ([3]; NASH CP-A, 10 mg OCA (n = 8)) of the same molecule?
Its value is −9.7%.

What about the “Platelets, Day 28” value ([3]; NASH CP-A, 10 mg OCA (n = 8)) of the same molecule?
The value was 101.5 10^9/L.

And the “Albumin, % Change at Day 28” value ([3]; NASH CP-A, 25 mg OCA (n = 8))?
Its value is −6.5%.

What about the “Albumin, Day 28” value ([3]; NASH CP-A, 25 mg OCA (n = 8)) of the same molecule?
Its value is 4.0 g/dL.

And the “Creatinine, % Change at Day 28” value ([3]; NASH CP-A, 25 mg OCA (n = 8))?
Its value is 0.8%.

What about the “Creatinine, Day 28” value ([3]; NASH CP-A, 25 mg OCA (n = 8)) of the same molecule?
The value was 0.87 mg/dL.

And the “Platelets, % Change at Day 28” value ([3]; NASH CP-A, 25 mg OCA (n = 8))?
Its value is −2.0%.

And the “Platelets, Day 28” value ([3]; NASH CP-A, 25 mg OCA (n = 8))?
The value was 155.5 10^9/L.

What about the “Subjects who discontinued treatment due to elevated bilirubin levels” value ([4]; NASH, OCA 25 mg, advanced disease with portal hypertension and history of hyperbilirubinemia, discontinued on Day 25) of the same molecule?
Its value is “One”.

What about the “Liver-related adverse events reported” value ([4]; all subjects) of the same molecule?
Its value is “one”.

What about the Serious adverse events ([4]; all subjects) of the same molecule?
The Serious adverse events was “No serious adverse events were observed”.

What about the “Severity of all AEs” value ([4]; all subjects, no trend for liver related AEs) of the same molecule?
Its value is “mild or moderate”.

And the “Overall safety and tolerability” value ([4]; daily OCA at 10 mg and 25 mg)?
Its value is “generally safe and well tolerated”.

What about the “Subjects experiencing adverse events” value ([4]; healthy subjects on 10 mg) of the same molecule?
Its value is 3 subjects.

What about the “Subjects experiencing adverse events” value ([4]; healthy subjects on 25 mg) of the same molecule?
The value was 2 subjects.

What about the “Total adverse events (AEs)” value ([4]; healthy subjects) of the same molecule?
The value was 5 AEs.

And the “Subjects experiencing adverse events” value ([4]; healthy subjects, both doses (of 8))?
The value was 5 subjects.

What about the “Subjects experiencing adverse events” value ([4]; subjects with NASH on 10 mg) of the same molecule?
Its value is 2 subjects.

And the “Subjects experiencing adverse events” value ([4]; subjects with NASH on 25 mg)?
The value was 4 subjects.

And the “Total adverse events (AEs)” value ([4]; subjects with NASH)?
Its value is 13 AEs.

What about the “Subjects experiencing adverse events” value ([4]; subjects with NASH, both doses (of 16)) of the same molecule?
Its value is “Six”.

And the “Subjects reporting mild or moderate pruritus” value ([4]; subjects with NASH, no relationship to dose)?
The value was “Four”.

And the “Time for bilirubin levels to return to normal after discontinuation of OCA” value ([4]; the one NASH subject on 25 mg who discontinued)?
The value was 1 days.
